{"source": "patent US20070286864A1", "about": "“Combined treatment with an EGFR kinase inhibitor and an agent that sensitizes tumor cells to the effects of EGFR kinase inhibitors” (priority 2006, published 2007)", "origin": "cited, not measured here", "key": {"[1]": {"test_system": "H358 cells", "details": "erlotinib single agent (10 μM), sensitive = maximum growth inhibition greater than 50%"}, "[2]": {"test_system": "H1703 cells", "details": "erlotinib single agent (10 μM), relatively insensitive = maximum growth inhibition less than 50%"}, "[3]": {"test_system": "Calu6 cells", "details": "erlotinib single agent (10 μM), relatively insensitive = maximum growth inhibition less than 50%"}, "[4]": {"test_system": "H460 cells", "details": "erlotinib single agent (10 μM), relatively insensitive = maximum growth inhibition less than 50%"}, "[5]": {"test_system": "H292 cells", "details": "erlotinib single agent (10 μM), sensitive = maximum growth inhibition greater than 50%"}}}
{"smiles": "C#Cc1cccc(Nc2ncnc3cc(OCCOC)c(OCCOC)cc23)c1", "note": "[erlotinib, [6,7-bis(2-methoxyethoxy)-4-quinazolin-4-yl]-(3-ethynylphenyl)amine]", "values": [{"measurement": "sensitivity of cell line to erlotinib", "setting": "[1]", "result": "sensitive"}, {"measurement": "sensitivity of cell line to erlotinib", "setting": "[2]", "result": "relatively insensitive"}, {"measurement": "sensitivity of cell line to erlotinib", "setting": "[3]", "result": "relatively insensitive"}, {"measurement": "sensitivity of cell line to erlotinib", "setting": "[4]", "result": "relatively insensitive"}, {"measurement": "sensitivity of cell line to erlotinib", "setting": "[5]", "result": "sensitive"}]}
